Measurements: patent US8063042B2, “Heterocyclic compounds” (Hoffmann-La Roche Inc., priority 2007, dated 2011)

Each compound was assayed against T1, human chemokine receptor 2 isoform B (Homo sapiens, UniProt P41597) (assay: Calcium mobilization assay). Settings: Ca mobilisation assay for CCR2; CHOK1-CCR2B-A5 cells; antagonist activity against 20 nM MCP-1.
T1 construct: host or cells: CHOK1-CCR2B-A5 (CHO-K1) cells
T1 sequence (P41597 1-360 isoform P41597-2): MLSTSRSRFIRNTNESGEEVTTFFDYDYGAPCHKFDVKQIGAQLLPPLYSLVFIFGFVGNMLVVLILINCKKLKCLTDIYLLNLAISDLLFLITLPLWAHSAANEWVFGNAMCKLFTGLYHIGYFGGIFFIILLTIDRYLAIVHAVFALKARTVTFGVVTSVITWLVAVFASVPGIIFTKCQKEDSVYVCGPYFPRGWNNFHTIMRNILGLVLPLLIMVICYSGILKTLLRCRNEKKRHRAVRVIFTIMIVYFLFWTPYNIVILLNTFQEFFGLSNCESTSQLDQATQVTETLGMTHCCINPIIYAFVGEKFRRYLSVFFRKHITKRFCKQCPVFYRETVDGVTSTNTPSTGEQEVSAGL
Type: cell-based
Procedure: Calcium Mobilization Assay
CHOK1-CCR2B-A5 cells (from Euroscreen) stably overexpressing the human chemokine receptor 2 isoform B were cultured in Nutrient Hams F12 medium supplemented with 5% FBS, 100 U/ml penicillin, 100 μg/ml streptomycin, 400 μg/ml G418 and 5 μg/ml puromycin. For the assay cells were grown overnight in 384-well black clear flat bottom polystyrene plates (Costar) at 37° C. at 5% CO2. After washing with DMEM, 20 mM Hepes, 2.5 mM probenecid, 0.1% BSA (DMEM assay buffer) cells were loaded with 4 μM Fluo-4 in the same DMEM assay buffer for 2 hours at 30° C. Excess dye was removed and cells were washed with DMEM assay buffer. 384-well compound plates were prepared with DMEM assay buffer/0.5% DMSO with or without various concentrations of test compounds. Usually compounds were tested for agonist and antagonist activity.
Test compounds were added to the assay plate and agonist activity was monitored as fluorescence for 80 seconds with a FLIPR (488 nm excitation; 510-570 nm emission; Molecular Devices). After 20-30 min. of incubation at 30° C., 20 nM MCP-1 (R&D; Roche) was added and fluorescence was monitored again for 80 seconds. Increases in intracellular calcium are reported as maximum fluorescence after agonist exposure minus basal fluorescence before exposure. Antagonist activity is indicated as inhibitor concentration required for 50% inhibition of specific calcium increases.

Compound | IC50 [µM]
O=C(/C=C/c1ccc(Cl)c(Cl)c1)N1CCN(CCCN2CCC(O)CC2)C(=O)C1 [Example 11, 4-[(E)-3-(3,4-Dichloro-phenyl)-acryloyl]-1-[3-(4-hydroxy-piperidin-1-yl)-propyl]-piperazin-2-one] | 0.284
O=C(/C=C/c1ccc(Cl)c(Cl)c1)N1CCN(CCCN2CCC(CO)C2)C(=O)C1 (centres unmarked) [Example 14, 4-[(E)-3-(3,4-Dichloro-phenyl)-acryloyl]-1-[3-(3-hydroxymethyl-pyrrolidin-1-yl)-propyl]-piperazin-2-one] | 0.307
CC1C(=O)N(CCCN2CCC3(CC3)[C@H](O)C2)CCN1C(=O)/C=C/c1ccc(Cl)c(F)c1 (stereo partly drawn) [Example 39, 4-[(E)-3-(4-Chloro-3-fluoro-phenyl)-acryloyl]-1-[3-((S)-4-hydroxy-6-aza-spiro[2,5]oct-6-yl)-propyl]-3-methyl-piperazin-2-one] | 0.0137

The remaining compounds from weak to strong by IC50, led by results:

IC50 [µM] | Compound
0.202 | O=C(/C=C/c1ccc(Cl)c(Cl)c1)N1CCN(CCCN2CCCCC2)S(=O)(=O)C1 [Example 34, (E)-3-(3,4-Dichloro-phenyl)-1-[1,1-dioxo-2-(3-piperidin-1-yl-propyl)-[1,2,5]thiadiazinan-5-yl]-propenone]
0.0765 | CC1C(=O)N(CCCN2CCCC2)CCN1C(=O)/C=C/c1ccc(Cl)c(Cl)c1 (centres unmarked) [Example 15, 4-[(E)-3-(3,4-Dichloro-phenyl)-acryloyl]-3-methyl-1-(3-pyrrolidin-1-yl-propyl)-piperazin-2-one]
